# Assay results taken from patent US20210317092A1 (BAYER PHARMA AKTIENGESELLSCHAFT, priority 2016, published 2021).
# Like-named read-outs stand apart in the source and are kept apart here.
# Target: T1, human Bradykinin B1 receptor (Homo sapiens, UniProt P46663)
# T1 construct: host or cells: CHO-K1
# T1 sequence (P46663 1-353): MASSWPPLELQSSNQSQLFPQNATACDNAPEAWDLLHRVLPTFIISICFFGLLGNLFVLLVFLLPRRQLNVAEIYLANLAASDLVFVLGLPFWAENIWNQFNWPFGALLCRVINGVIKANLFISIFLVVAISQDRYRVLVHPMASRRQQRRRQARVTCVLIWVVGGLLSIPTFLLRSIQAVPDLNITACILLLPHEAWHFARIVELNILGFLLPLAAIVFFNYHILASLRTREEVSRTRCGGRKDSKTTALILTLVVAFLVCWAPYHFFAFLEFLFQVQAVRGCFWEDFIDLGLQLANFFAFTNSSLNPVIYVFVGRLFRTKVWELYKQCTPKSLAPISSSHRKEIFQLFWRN
# Experiment: Calcium flux Assay (FLIPR) with recombinant CHO-K1 cells expressing human Bradykinin B1 receptor, in presence (hB1 IC50) or absence (hB1 free IC50) of 0.1% BSA
# Format: cell-based
# [1] = in absence of 0.1% BSA, read-out: hB1 free IC50
# [2] = in presence of 0.1% BSA, read-out: hB1 IC50
SMILES,IC50 [1] [nM],IC50 [2] [nM]
"COc1cc(-c2ccc(NC(=O)C3(c4cccc(Cl)c4)CC3)cc2-c2nnn[nH]2)cc(C(F)(F)F)n1 [Example 199, 1-(3-chlorophenyl)-N-{4-[2-methoxy-6-(trifluoromethyl)pyridin-4-yl]-3-(1H-tetrazol-5-yl)phenyl} cyclopropane-carboxamide]",1580,2400
"CS(=O)(=O)c1ccc(-c2ccc(NC(=O)C3(c4cccc(Cl)c4)CC3)cc2-c2nnn[nH]2)cn1 [Example 200, 1-(3-chlorophenyl)-N-{4-[6-(methylsulfonyl)pyridin-3-yl]-3-(1H-tetrazol-5-yl)phenyl} cyclopropane-carboxamide]",1170,–
"O=C(Nc1ccc(-c2ccnc(C(F)F)c2)c(-c2nnn[nH]2)c1)C1(c2ccc(F)c(F)c2)CC1 [Example 206, N-{4-[2-(difluoromethyl)pyridin-4-yl]-3-(1H-tetrazol-5-yl)phenyl}-1-(3,4-difluorophenyl) cyclopropane-carboxamide]",485,–
"Cc1cc(-c2ccc(NC(=O)C3(c4cccc(Cl)c4)CC3)cc2-c2nnn[nH]2)ccn1 [Example 210, 1-(3-chlorophenyl)-N-[4-(2-methylpyridin-4-yl)-3-(1H-tetrazol-5-yl)phenyl] cyclopropane-carboxamide]",131,78
"O=C(Nc1cc(-c2nnn[nH]2)c(-c2ccc(C(F)(F)F)nc2)cc1O)C1(c2cc(F)cc(Cl)c2)CC1 [Example 223, 1-(3-chloro-5-fluorophenyl)-N-{2-hydroxy-5-(1H-tetrazol-5-yl)-4-[6-(trifluoromethyl)pyridin-3-yl]phenyl} cyclopropane-carboxamide]",–,84
"O=C(Nc1cc(-c2nnn[nH]2)c(-c2ccc(C(F)(F)F)nc2)cc1O)C1(c2cccc(Cl)c2F)CC1 [Example 225, 1-(3-chloro-2-fluorophenyl)-N-{2-hydroxy-5-(1H-tetrazol-5-yl)-4-[6-(trifluoromethyl)pyridin-3-yl]phenyl} cyclopropane-carboxamide]",–,88.9
"O=C(Nc1cc(-c2nnn[nH]2)c(-c2ccc(C(F)(F)F)nc2)cc1O)C1(c2ccc(Cl)cc2)CC1 [Example 226, 1-(4-chlorophenyl)-N-{2-hydroxy-5-(1H-tetrazol-5-yl)-4-[6-(trifluoromethyl)pyridin-3-yl]phenyl} cyclopropane-carboxamide]",–,105
"COc1ccc(-c2cc(F)c(NC(=O)C3(c4cc(Cl)ccc4F)CC3)cc2-c2nnn[nH]2)cc1 [Example 229, 1-(5-Chloro-2-fluorophenyl)-N-[5-fluoro-4′-methoxy-2-(1H-tetrazol-5-yl)biphenyl-4-yl]cyclopropane carboxamide]",–,1280
"COc1ccc(-c2cc(F)c(NC(=O)C3(c4ccc(F)c(Cl)c4)CC3)cc2-c2nnn[nH]2)cc1C [Example 230, 1-(3-Chloro-4-fluorophenyl)-N-[5-fluoro-4′-methoxy-3′-methyl-2-(1H-tetrazol-5-yl)biphenyl-4-yl]cyclopropane-carboxamide]",–,2100
"COc1ccc(-c2cc(F)c(NC(=O)C3(c4ccc(Cl)cc4F)CC3)cc2-c2nnn[nH]2)cc1C [Example 231, 1-(4-Chloro-2-fluorophenyl)-N-[5-fluoro-4′-methoxy-3′-methyl-2-(1H-tetrazol-5-yl)biphenyl-4-yl]cyclopropane carboxamide]",–,2200
"COc1ccc(-c2c(F)cc(NC(=O)C3(c4ccc(F)cc4F)CC3)cc2-c2nnn[nH]2)cc1OC [Example 235, 1-(2,4-Difluorophenyl)-N-[2-fluoro-3′,4′-dimethoxy-6-(1H-tetrazol-5-yl)biphenyl-4-yl]cyclopropane carboxamide]",–,53.6
"Cc1cc(-c2c(F)cc(NC(=O)C3(c4cccc(Cl)c4)CC3)cc2-c2nnn[nH]2)ccn1 [Example 246, 1-(3-chlorophenyl)-N-[3-fluoro-4-(2-methylpyridin-4-yl)-5-(1H-tetrazol-5-yl)phenyl] cyclopropane carboxamide]",16,–
"CCOc1ccc(-c2cc(C)c(NC(=O)C3(c4cccc(Cl)c4)CC3)cc2-c2nnn[nH]2)cc1OC [Example 249, 1-(3-Chlorophenyl)-N-[4′-ethoxy-3′-methoxy-5-methyl-2-(1H-tetrazol-5-yl)biphenyl-4-yl]cyclopropane carboxamide]",–,1760
"COc1ccc(-c2c(C)cc(NC(=O)C3(c4cccc(Cl)c4)CC3)cc2-c2nnn[nH]2)cc1OC [Example 250, 1-(3-Chlorophenyl)-N-[3′,4′-dimethoxy-2-methyl-6-(1H-tetrazol-5-yl)biphenyl-4-yl]cyclopropane carboxamide]",–,240
"CCOc1ccc(-c2ccc(NC(=O)C3(c4cc(F)ccc4C)CC3)cc2-c2nnn[nH]2)cn1 [Example 254, N-[4-(6-ethoxypyridin-3-yl)-3-(1H-tetrazol-5-yl)phenyl]-1-(5-fluoro-2-methylphenyl)cy-clopropanecar-boxamide]",309,245
"COc1ccc(-c2ccc(NC(=O)C3(c4cc(F)ccc4C)CC3)cc2-c2nnn[nH]2)cc1OC [Example 255, N-[3′,4′-dimethoxy-2-(1H-tetrazol-5-yl)biphenyl-4-yl]-1-(5-fluoro-2-methylphenyl)cy-clopropanecar-boxamide]",702,452
"CCOc1ccc(-c2ccc(NC(=O)C3(c4cccc(F)c4C)CC3)cc2-c2nnn[nH]2)cn1 [Example 256, N-[4-(6-ethoxypyridin-3-yl)-3-(1H-tetrazol-5-yl)phenyl]-1-(3-fluoro-2-methylphenyl)cy-clopropanecar-boxamide]",288,274
"COc1ccc(-c2ccc(NC(=O)C3(c4cccc(F)c4C)CC3)cc2-c2nnn[nH]2)cc1OC [Example 257, N-[3′,4′-dimethoxy-2-(1H-tetrazol-5-yl)biphenyl-4-yl]-1-(3-fluoro-2-methylphenyl)cy-clopropanecar-boxamide]",–,916
"O=C(Nc1cc(-c2nnn[nH]2)c(-c2ccc(C(F)(F)F)nc2)cc1O)C1(c2cccc(Cl)c2)CC1 [Example 262, 1-(3-chlorophenyl)-N-{2-hydroxy-5-(1H-tetrazol-5-yl)-4-[6-(trifluoromethyl)pyridin-3-yl]phenyl}cyclopro-panecarboxa-mide]",–,72.3
"COc1ccc(-c2cc(F)c(NC(=O)C3(c4ccc(Cl)cc4)CC3)cc2-c2nnn[nH]2)cc1OC [Example 264, 1-(4-Chlorophenyl)-N-[5-fluoro-3′,4′-dimethoxy-2-(1H-tetrazol-5-yl)biphenyl-4-yl]cyclopropane carboxamide]",2330,834

# Results, then the compound that gave them:
IC50 [1] [nM],IC50 [2] [nM],SMILES
943,–,"O=C(Nc1ccc(-c2cnc(C(F)(F)F)nc2)c(-c2nnn[nH]2)c1)C1(c2ccc(OC(F)(F)F)cc2)CC1 [Example 198, N-{3-(1H-tetrazol-5-yl)-4-[2-(trifluoromethyl)pyrimidin-5-yl]phenyl}-1-[4-(trifluoromethoxy)phenyl] cyclopropane-carboxamide]"
374,–,"CS(=O)(=O)c1ccc(-c2ccc(NC(=O)C3(c4ccc(C(F)(F)F)cc4F)CC3)cc2-c2nnn[nH]2)cn1 [Example 201, 1-[2-fluoro-4-(trifluoromethyl)phenyl]-N-{4-[6-(methylsulfonyl)pyridin-3-yl]-3-(1H-tetrazol-5-yl)phenyl} cyclopropane-carboxamide]"
125,–,"O=C(Nc1ccc(-c2ccc(C(F)(F)F)nc2)c(-c2nnn[nH]2)c1)C1(c2ccc(F)cc2)CC1 [Example 204, 1-(4-fluorophenyl)-N-{3-(1H-tetrazol-5-yl)-4-[6-(trifluoromethyl)pyridin-3-yl]phenyl} cyclopropane-carboxamide]"
170,–,"O=C(Nc1ccc(-c2cnc(C(F)(F)F)nc2)c(-c2nnn[nH]2)c1)C1(c2ccc(C(F)(F)F)cc2)CC1 [Example 205, N-{3-(1H-tetrazol-5-yl)-4-[2-(trifluoromethyl)pyrimidin-5-yl]phenyl)-1-[4-(trifluoromethyl)phenyl] cyclopropane-carboxamide]"
86.8,–,"CCOc1ccc(-c2ncc(NC(=O)C3(c4ccc(C(F)(F)F)cc4F)CC3)cc2-c2nnn[nH]2)cn1 [Example 219, N-[6′-ethoxy-3-(1H-tetrazol-5-yl)-2,3′-bipyridin-5-yl]-1-[2-fluoro-4-(trifluoromethyl)phenyl] cyclopropane-carboxamide]"
–,160,"O=C(Nc1cc(-c2nnn[nH]2)c(-c2ccc(C(F)(F)F)nc2)cc1O)C1(c2ccc(Cl)cc2F)CC1 [Example 221, 1-(4-chloro-2-fluorophenyl)-N-{2-hydroxy-5-(1H-tetrazol-5-yl)-4-[6-(trifluoromethyl)pyridin-3-yl]phenyl} cyclopropane-carboxamide]"
–,88.2,"O=C(Nc1cc(-c2nnn[nH]2)c(-c2ccc(C(F)(F)F)nc2)cc1O)C1(c2ccc(F)cc2F)CC1 [Example 228, 1-(2,4-Difluorophenyl)-N-{2-hydroxy-5-(1H-tetrazol-5-yl)-4-[6-(trifluoromethyl)pyridin-3-yl]phenyl} cyclopropane-carboxamide]"
227,–,"O=C(Nc1ccc(-c2cnc(C(F)(F)F)nc2)c(-c2nnn[nH]2)c1)C1(c2ccc(Cl)c(F)c2)CC1 [Example 251, 1-(4-chloro-3-fluorophenyl)-N-{3-(1H-tetrazol-5-yl)-4-[2-(trifluoromethyl)pyrimidin-5-yl]phenyl} cyclopropane-carboxamide]"
92.8,–,"O=C(Nc1ccc(-c2cnc(C(F)(F)F)nc2)c(-c2nnn[nH]2)c1)C1(c2ccc(Cl)cc2F)CC1 [Example 252, 1-(4-chloro-2-fluorophenyl)-N-{3-{1H-tetrazol-5-yl)-4-[2-(trifluoromethyl)pyrimidin-5-yl]phenyl} cyclopropane-carboxamide]"
